The target of one data set is T1, LPAR1 (Homo sapiens, UniProt Q92633).
T1 construct: expressed in transfected cells; host or cells: CHO (CHO-LPA1 cells)
Description: Cell calcium flux assay (antagonist mode, LPA at EC80, FLIPR). It is filed as cell-based. Conditions: CHO-LPA1 cells, calcium flux, grades; read-out: LPAR1 IC50. How it is done: • 1) The test compound was diluted to a 400X stock solution with DMSO in a 384-well plate. • 2) 1 µl of compound solution from step 1 was transferred into 39 ul of assay buffer to prepare a 10X working solution in a 384-well plate using a Bravo automated liquid handling platform. • 3) CHO-LPA1 cells were cultured in F12 medium (10% FBS). • 4) When cells reached 80% confluence, the cells were dissociated using 0.25% trypsin-EDTA. • 5) Cell density was determined and the cells were diluted to 4x10e5/ml using F12 (10% FBS). • 6) 30 µl of the cell suspension was dispensed into a 384-well plate (corning 3764#) using a multidrop automated dispenser, resulting in 12,000 cells per well. The plate was incubated at 37°C with 5% CO2 for 18-20 hours. • 7) The medium was replaced with 25 uL of serum-free medium and incubated overnight. • 8) 10 ul of 3.5X loading dye was added to each well of the cell plate. The plate was incubated in the dark at 37°C with 5% CO2 for 0.5-1 hours. • 9) After incubation, 5 µl of the 10X working solution from step 2 was transferred to the cell plate. • 10) The cell plate was incubated in the dark at 25°C for 15 minutes, and then the calcium signals were read. • 11) A 5X agonist (LPA) working solution in 1X HBSS+20 mM HEPES+0.1% BSA was prepared in a 384-well assay plate (greiner 784075#), with at least 20 µl per well. The agonist concentration used in this assay was determined based on the dose-response curve from a prior agonist mode experiment, with the EC80 value serving as the final agonist concentration. • 12) Data were read and saved using FLIPR at room temperature with the specified settings. • 13) The signal values were plotted against compound concentrations, and the curve fitting was performed and the IC50 values were calculated using nonlinear regression analysis in GraphPad Prism software.
IC50 values are represented by grades A, B, C, and D, where A represents 0 < IC50 ≤ 10 nM, B represents 10 nM < IC50 ≤ 50 nM, C represents 50 nM < IC50 ≤ 100 nM, and D represents IC50 > 100 nM. Table 1 Antagonistic activity of the compounds of the present invention against LPAR1
(A change in cytosolic calcium serves as a functional read-out for many receptors and channels.)

Data set [1] is described as follows: Pharmacokinetic test in rats. It is filed as in vivo, SD rats. The protocol: 3.1. Experimental animals: Male SD rats, about 220 g, 6-8 weeks old, 6 rats/compound, purchased from Chengdu Ddossy Experimental Animals Co., Ltd.
3.2. Experimental design: On the day of the experiment, the SD rats were randomly grouped according to their body weights. The animals were fasted with water available for 12-14 h one day before the administration, and were fed 4 h after the administration. Table 4. Administration information
(§1) Before and after administration, 0.15 mL of blood was taken from the orbit under isoflurane anaesthesia and placed in an EDTAK2 centrifuge tube. The tube was centrifuged at 5000 rpm at 4°C for 10 min, and plasma was collected. Before analysis and detection, all samples were stored at -80°C, and the samples were quantitatively analysed by LC-MS/MS. Table 5. Pharmacokinetic parameters of test compound in plasma of rats

Data set [2] in a line: Pharmacokinetic test in mice. In kind it is in vivo, C57 mice. The protocol: 2.1 Experimental animals: Male C57 mice, 20-25 g, 6 mice/compound, purchased from Chengdu Ddossy Experimental Animals Co., Ltd.
2.2 Experimental design: On the day of the experiment, the C57 mice were randomly grouped according to their body weights. The animals were fasted with water available for 12-14 h one day before the administration, and were fed 4 h after the administration. Table 2. Administration information
as §1, with “0.06” for “0.15”, “collected. The blood collection time points for the intravenous administration group and oral gavage administration group were: 0 min, 5 min, 15 min, 30 min, 1 h, 2 h, 4 h, 6 h, 8 h, and 24 h.” for “collected.”, “3.” for “5.”, “compounds” for “compound”, “mice” for “rats”

A short description of a further data set: Caco2 permeability test. Conditions: human, Caco-2 monolayer, 2 hours at 37°C. In kind it is in vitro ADME. How it is done:
In the experiment, a monolayer of Caco-2 cells was used, and incubated in triplicate in a 96-well Transwell plate. A transport buffer solution (HBSS, 10 mM HEPES, pH 7.4 ± 0.05) containing the compound of the present invention (2 µM) or the control compound digoxin (10 µM), nadolol (2 µM) or metoprolol (2 µM) was added to the administration end hole on the apical side or basal side. A DMSO-containing transport buffer solution was added to the corresponding receiving end hole. After incubation for 2 hours at 37°C ± 1°C, the cell plate was removed, and an appropriate amount of samples was taken from both the apical side and basal side and transferred to a new 96-well plate. Subsequently, acetonitrile containing an internal standard was added to precipitate the protein. The samples were analysed using LC MS/MS, and the concentrations of the compound of the present invention and the control compound were determined. Concentration data were used to calculate apparent permeability coefficients for transport from the apical side to the basal side, and from the basal side to the apical side of the cell monolayer, and thus to calculate the efflux ratio. The integrity of the cell monolayer after 2 hours of incubation was evaluated by leakage of Lucifer Yellow.
On the technique in general: Caco-2 monolayers are a common model of the intestinal barrier.

Setting [3] is: rat, iv, rats, i.v. (1 mg/kg), plasma.
The mark [4] stands for this setting: mouse, iv, mice, i.v. (1 mg/kg), plasma.

This note sets out measurements from patent EP4775571A1, “LPAR1 ANTAGONIST AND USE THEREOF” (Haisco Pharmaceutical Group Co., Ltd., priority 2023, dated 2025).

What is called IC50 is the concentration that inhibits the measured activity by half. Usually AUC(0-t) stands for the area under the concentration-time curve up to a stated or last time point. Read a low AUC(0-t) as less exposure. By clearance is commonly meant the volume of plasma or blood freed of the substance per unit of time. A high value points to efficient removal. A word on the efflux ratio: it is a quotient of directional permeabilities that is used to spot active efflux.

T1 sequence (Q92633 whole entry): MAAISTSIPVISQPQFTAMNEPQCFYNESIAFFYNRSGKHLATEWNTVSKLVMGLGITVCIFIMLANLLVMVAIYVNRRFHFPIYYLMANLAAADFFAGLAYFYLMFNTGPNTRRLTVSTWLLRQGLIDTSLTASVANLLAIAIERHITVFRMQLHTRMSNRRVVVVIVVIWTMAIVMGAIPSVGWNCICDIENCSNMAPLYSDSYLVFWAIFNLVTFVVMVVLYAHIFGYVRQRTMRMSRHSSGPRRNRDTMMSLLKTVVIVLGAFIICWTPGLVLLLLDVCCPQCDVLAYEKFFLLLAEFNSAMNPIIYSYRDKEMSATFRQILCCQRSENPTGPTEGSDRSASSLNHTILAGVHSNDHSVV

For `C=C1CC(OC(=O)NCc2c(-c3ccc(O[C@H]4CCC[C@H](C(=O)O)C4)c(C)n3)nnn2C)C1` [Compound 26], at LPAR1, the concentration for half-maximal inhibition (IC50) was less than 10 nM. In data set [1] (conclusion in words), the “pharmacokinetic characteristics in rats” value is listed as “good pharmacokinetic characteristics”. Moreover, the AUC(0-t) in data set [1] (setting [3]) was determined as 1870 ± 246 ng·h/mL; in data set [1] (rat, po, rats, i.g. (3 mg/kg), plasma), 2880 ± 913 ng·h/mL; in data set [2] (setting [4]), 1580 ± 50 ng·h/mL; in data set [2] (mouse, po, mice, i.g. (3 mg/kg), plasma), 2290 ± 102 ng·h/mL. The clearance is 8.91 ± 1.2 mL/min/kg in data set [1] (setting [3]) and 10.3 ± 0.52 mL/min/kg in data set [2] (setting [4]). For the same compound, the Vd in data set [1] (rat, iv, rats, i.v. (1 mg/kg), plasma, read-out: Vdss) was found to be 1.21 ± 0.5 L/kg; in data set [2] (mouse, iv, mice, i.v. (1 mg/kg), plasma, read-out: Vdss) it was 2.83 ± 0.53 L/kg. The “C0 or Cmax” value in data set [1] (rats, i.g. (3 mg/kg), plasma) is 1144 ± 145 ng/mL; in data set [1] (rats, i.v. (1 mg/kg), plasma), 2745 ± 354 ng/mL; in data set [2] (mice, i.g. (3 mg/kg), plasma), 659 ± 55 ng/mL; in data set [2] (mice, i.v. (1 mg/kg), plasma), 2268 ± 193 ng/mL. Besides, the “pharmacokinetic characteristics in mice” value in data set [2] (conclusion in words) is listed as “excellent pharmacokinetic characteristics”. The efflux ratio at 2 h, 2 µM in “Caco2 permeability test” (pH 7.4) worked out at 6.79. For the same compound, the Papp A→B at 2 h, 2 µM in “Caco2 permeability test” (pH 7.4, read-out: Average apparent permeability coefficient A-B) stood at 4.31 ×10⁻⁶ cm/s. Also, in the data set “Caco2 permeability test” (pH 7.4, read-out: Average apparent permeability coefficient B-A), the Papp B→A at 2 h, 2 µM was determined as 29.2 ×10⁻⁶ cm/s.
